{
  "source": "patent US20080058373A1",
  "about": "“Compositions and Methods for Treating or Preventing Glaucoma or Progression Thereof” (priority 2006, published 2008)",
  "key": {"[1]": {"system": "rabbit eye (anterior chamber paracentesis)", "experiment": "Clinical evaluation by slit lamp (clinical score), rabbit paracentesis model", "assay_type": "in vivo", "set-up": "key to Clinical Score −180 min / Clinical Score −5 min / Clinical Score +115 min: 0=normal; 1=discrete dilatation of iris and conjunctival vessels; 2=moderate dilatation of iris and conjunctival vessels; 3=intense iridal hyperemia with flare in the anterior chamber; 4=intense iridal hyperemia with flare in the anterior chamber and presence of fibrinous exudates", "details": "0.1% topical"}, "Myeloperoxidase (MPO)": {"system": "Myeloperoxidase (MPO)", "experiment": "Myeloperoxidase (MPO) activity in iris-ciliary body, rabbit paracentesis model", "assay_type": "in vivo", "experimental": "3.9 g of NaH2PO4 2H2O were dissolved in a volumetric flask to 500 ml with water. The pH was adjusted to pH=6 with 3N NaOH.\n0.5 g of hexa-decyl-trimethyl-ammonium bromide was dissolved in 100 ml phosphate buffer.\nThe solution was prepared freshly. Ten microliters of H2O2 (30 wt. %) were diluted to 1 ml with water (solution A). 7.5 mg o-dianisidine 2HCl was dissolved in 45 ml of phosphate buffer and 75 μl of solution A were added.\n(§1) Each rabbit was placed in a restraint device and tagged with the alphanumeric code. The formulations were instilled (50 μl) into the conjunctival sac of both eyes 180, 120, 90 and 30 min before the first paracentesis; then 15, 30, 90 min after the first paracentesis. To perform the first paracentesis the animals were anaesthetized by intravenous injection of 5 mg/kg Zoletil® (Virbac; 2.5 mg/kg tiletamine HCl and 2.5 mg/kg zolazepam HCl) and one drop of local anesthetic (Novesina®, Novartis) was administered to the eye. Anterior chamber paracentesis was performed with a 26 G needle attached to a tuberculin syringe; the needle was introduced into the anterior chamber through the cornea, taking care not to damage the tissues. Two hours after the first paracentesis, the animals were sacrificed with 0.4 ml Tanax® (Intervet International B.V.) and the second paracentesis was performed. About 100 μl of aqueous humor were removed at the second paracentesis. Aqueous humor was immediately split in four aliquots and stored at −80° C. until analysis. Then both eyes were enucleated and the iris-ciliary body was carefully excised, placed in polypropylene tubes, and stored at −80° C. until analysis.\nThe activity of MPO was measured as previously described by Williams et al.[5] The iris-ciliary bodies were carefully dried, weighed and immersed in 1 ml of hexa-decyl-trimethyl-ammonium bromide solution. Then, the samples were sonicated for 10 sec on ice by a ultrasound homogenizer (HD 2070, Bandelin electronic), freeze-thawed three times, sonicated for 10 sec and centrifuged at 14,000 g for 10 min to remove cellular debris. An aliquot of the supernatant (40-200 μl) was diluted to 3 ml with the o-dianisidine 2HCl/H2O2 solution. The change in absorbance at 460 nm was continuously monitored for 5 min by a spectrophotometer (UV/Vis Spectrometer Lambda EZ 201; Perkin Elmer). The slope of the line (Δ/min) was determined for each sample and used to calculate the number of units of MPO in the tissue as follows:\nValues were expressed as units of MPO/g of tissue."}, "[2]": {"system": "rabbit eye (anterior chamber paracentesis)", "experiment": "Pupillary diameter measurement, rabbit paracentesis model", "assay_type": "in vivo", "details": "0.1% topical", "experimental": "as §1\nThe pupillary diameter of both eyes was measured with a Castroviejo caliper 180 min and 5 min before the first paracentesis and 5 min before the second paracentesis."}, "protein in aqueous humor": {"system": "protein in aqueous humor", "experiment": "Protein measurement in aqueous humor, rabbit paracentesis model", "assay_type": "in vivo", "details": "0.1% topical", "experimental": "as §1\nFor protein concentration determination in the aqueous humor we used the Protein Quantification Kit (Fluka; Cat.No. 77371; Lot.No. 1303129). Five microliters of aqueous humor were diluted to 100 μl with water. Twenty microliters of samples and of standards were load into a 96-well plate and recorded in a plate layout. Samples were treated following the assay procedure described in the kit. A microplate reader (GDV, Italy; model DV 990 B/V6) set at 670 nm was used for making the calibration and analyzing the samples."}, "[3]": {"system": "New Zealand White rabbits", "experiment": "Mortality/morbidity in the rabbit IOP study", "assay_type": "in vivo", "experimental": "On Days 1-31, animals received daily topical doses of the appropriate test article into the right eye. Animals were dosed four times per day, with doses administered 2 hours apart. Doses were administered using a calibrated 50-μL pipette. The eyelids were held close for 10 seconds immediately following dosing. The time of each dose administration was recorded.\nAnimals determined to be moribund were euthanized with an intravenous injection of commercial euthanasia solution."}, "Prostaglandin E2 (PGE2)": {"system": "Prostaglandin E2 (PGE2)", "experiment": "Prostaglandin E2 (PGE2) measurement in aqueous humor, rabbit paracentesis model", "assay_type": "in vivo", "details": "0.1% topical; second paracentesis; group mean", "experimental": "as §1\nFor the quantitative determination of PGE2 in the aqueous humor we used the PGE2 Immunoassay kit (R&D Systems; Cat.No. KGE004; Lot.No. 240010). Eleven microliters or 16 μl of aqueous humor were diluted to 110 μl or 160 μl with the calibrator diluent solution provided with the kit. One hundred microliters of samples and of standards were load into a 96-well plate and recorded in a plate layout. Samples were treated following the assay procedure described in the kit. A microplate reader (GDV, Italy; model DV 990 B/V6) set at 450 nm (wavelength correction at 540 nm) was used for making the calibration and analyzing the samples."}, "[4]": {"system": "primary human corneal epithelial cells", "experiment": "IL-1β-stimulated cytokine production in primary HCECs (30-cytokine Luminex kit)", "details": "18 h, P<0.05", "procedure": "Primary HCECs were seeded in 24-well plates. […] Each treatment was performed in triplicate. Media were collected and used for determination of cytokine content using a 30-cytokine Luminex kit. Cell viability was determined by alamarBlue assay (LP06013).\nMedian fluorescence intensity (MFI) was used to obtain the concentration of each cytokines in pg/ml based on the standard curve of each cytokine assayed by Luminex. The linear range of the standard curve for each cytokine was used for determination of cytokine concentration. Duplicate values for each sample were averaged. Data were expressed as mean±SD. Statistical analysis was performed using one-way ANOVA-Dunnett's test, and P<0.05 was considered statistically significant."}, "[5]": {"details": "5 min before the first paracentesis, single eyes, listed as Dex"}, "[6]": {"details": "5 min before the second paracentesis, single eyes, listed as Dex"}, "[7]": {"details": "0.1% (0.05 mg/dose) 4 × daily, Group A, individual rabbits"}, "[8]": {"details": "10 ng/ml IL-1β-stimulated HCECs"}},
  "note": "“And” between values parts separate entries of the source, which are not always exact repeats. Equal values may be shown once. “Also recorded” adds a separate entry of the source.",
  "data": [
    {"compound": "C[C@@H]1C[C@H]2[C@@H]3CCC4=CC(=O)C=C[C@]4(C)[C@@]3(F)[C@@H](O)C[C@]2(C)[C@@]1(O)C(=O)CO", "note": "[dexamethasone, reference compound]", "values": [
      {"measurement": "Clinical Score −5 min", "setting": "[1]; [5]", "result": "0 and 1"},
      {"measurement": "Clinical Score +115 min", "setting": "[1]; [6]", "result": "1 and 3"},
      {"measurement": "Percentage of eyes with clinical score 1", "setting": "[1]; +115 min, N=8 eyes", "result": 75, "unit": "%"},
      {"measurement": "Percentage of eyes with clinical score 3", "setting": "[1]; +115 min, N=8 eyes", "result": 25, "unit": "%"},
      {"measurement": "Percentage of eyes with clinical score 0", "setting": "[1]; −5 min, N=8 eyes", "result": 75, "unit": "%"},
      {"measurement": "Percentage of eyes with clinical score 1", "setting": "[1]; −5 min, N=8 eyes", "result": 25, "unit": "%"},
      {"measurement": "Percentage of eyes with clinical score 0", "setting": "[1]; −180 min (basal), N=8 eyes", "result": 100, "unit": "%"},
      {"measurement": "Clinical Score −180 min", "setting": "[1]; −180 min (basal), single eyes", "result": 0},
      {"measurement": "MPO activity in iris-ciliary body, Mean", "setting": "Myeloperoxidase (MPO); 0.1% topical, samples collected after the second paracentesis, group mean", "result": 0.618, "unit": "MPO Unit/g"},
      {"measurement": "Δ/min (mean of the slope of the line recorded every 15 sec for 5 min)", "setting": "Myeloperoxidase (MPO); 0.1% treatment, 100 μl supernatant aliquot diluted to 3 ml, individual eyes, listed as Dex", "result": "0.029 and 0.031 and 0.064 and 0.023 (2×) and 0.019 and 0.024 and 0.021"},
      {"measurement": "MPO activity in iris-ciliary body", "setting": "Myeloperoxidase (MPO); 0.1% treatment, samples collected after the second paracentesis, individual eyes, listed as Dex", "result": "0.71 Unit/g and 0.60 Unit/g and 1.32 Unit/g and 0.48 Unit/g (2×) and 0.39 Unit/g and 0.45 Unit/g and 0.51 Unit/g"},
      {"measurement": "Pupillary diameter T1: −180 min", "setting": "[2]; 50 μl drops, −180 min (basal), single eyes, listed as Dex", "result": "6.0 mm and 7.0 mm and 5.5 mm and 6.5 mm"},
      {"measurement": "Pupillary diameter T2: −5 min", "setting": "[2]; [5]", "result": "5.5 mm and 6.5 mm and 6.0 mm and 7.0 mm and 7.5 mm"},
      {"measurement": "Pupillary diameter T3: +115 min", "setting": "[2]; [6]", "result": "5.5 mm and 6.0 mm and 4.5 mm and 5.0 mm and 6.5 mm"},
      {"measurement": "Pupillary diameter Mean Δ(T3 − T1)", "setting": "[2]; group mean, n=8 eyes", "result": "−0.8", "unit": "mm"},
      {"measurement": "Protein levels in aqueous humor (raw data)", "setting": "protein in aqueous humor; samples collected at the second paracentesis, single eyes, listed as Dex", "result": "31.31 mg/mL and 31.81 mg/mL and 35.95 mg/mL and 37.15 mg/mL and 32.12 mg/mL and 32.40 mg/mL"},
      {"measurement": "Protein levels in aqueous humor, Mean", "setting": "protein in aqueous humor; second paracentesis, group mean", "result": 33.457, "unit": "mg/mL"},
      {"measurement": "Day of Death (day euthanized or found dead)", "setting": "[3]; [7]", "result": "25 (2×) and 27 (2×) and 23 and 13"},
      {"measurement": "Recorded Notes (mortality)", "setting": "[3]; [7]", "result": "Euthanized due to severe hemorrhagic diarrhea. Noted to be; also recorded: Euthanized. Very sick/poor health; left (untreated) eye; also recorded: Euthanized due to severe profuse hemorrhagic diarrhea; also recorded: Found dead. No rigor mortis present"},
      {"measurement": "Mortality (animals found dead or euthanized prior to study completion/number of animals in group)", "setting": "[3]; 0.1%, 0.05 mg/dose, topical right eye 4 × daily, Day 33", "result": "6/10^(3)"},
      {"measurement": "Levels of PGE2 in aqueous humor, Mean", "setting": "Prostaglandin E2 (PGE2)", "result": 2.263, "unit": "ng/mL"},
      {"measurement": "Concentration at which a significant inhibitory effect was observed on IL-6", "setting": "[4]; [8]", "result": 1, "unit": "nM"},
      {"measurement": "Concentration at which a significant inhibitory effect was observed on MCP-1", "setting": "[4]; [8]", "result": 10, "unit": "nM"},
      {"measurement": "Concentration at which a significant inhibitory effect was observed on TGF-α", "setting": "[4]; [8]", "result": 10, "unit": "nM"},
      {"measurement": "Concentration at which a significant inhibitory effect was observed on TNF-α", "setting": "[4]; [8]", "result": 10, "unit": "nM"},
      {"measurement": "Concentration at which a significant inhibitory effect was observed on RANTES", "setting": "[4]; IL-1β-stimulated HCECs", "result": 1, "unit": "µM"}
    ]}
  ]
}
